The results in this text go back to PubChem BioAssay (NCI).

Test systems include MDA-MB-231 breast; SN12C renal; LOX IMVI melanoma; MCF7 breast; NCI/ADR-RES ovarian; NCI-H226 lung; UACC-62 melanoma; SK-MEL-28 melanoma; OVCAR-3 ovarian; OVCAR-4 ovarian.
Assay in all cases: growth of human tumour cells (NCI), 48 h

The structures appear in SMILES notation.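 Briefly, cells in 96-well plates were exposed to five compound concentrations for 48 h, and endpoints were estimated by linear interpolation. TGI: total growth inhibition.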

For `COc1ccc(C2C(C#N)=C(S)N(C3OC(CO)C(O)C(O)C3O)C(c3ccccc3)=C2C(C)=O)cc1` (stereo unspecified), the TGI in the assay with MDA-MB-231 breast, in the assay on SN12C renal, in the assay on LOX IMVI melanoma, with MCF7 breast, in the assay with NCI/ADR-RES ovarian and in the assay with NCI-H226 lung was over 100 µM in each case. Also, the TGI in the assay with UACC-62 melanoma, in the assay on SK-MEL-28 melanoma and with OVCAR-3 ovarian was over 100 µM each time.
Regarding `COc1cc(C2S/C(=C/c3ccccc3)C(=O)N2c2ccc(Cl)c(Cl)c2)cc(OC)c1OC` (stereo unspecified), the TGI with MDA-MB-231 breast was over 100 µM; in the assay on SN12C renal, over 100 µM; in the assay on LOX IMVI melanoma, over 100 µM; with MCF7 breast, over 87.7 µM; in the assay with NCI/ADR-RES ovarian, over 100 µM; with NCI-H226 lung, over 100 µM. The TGI in the assay on OVCAR-4 ovarian, in the assay with SK-MEL-28 melanoma and in the assay on OVCAR-3 ovarian was over 100 µM each time.
Take `O=C(CNc1ccc(Cl)cc1Cl)NC1C=Cc2ccc(S(=O)(=O)Nc3ccc(Cl)cc3Cl)cc2C1=O` (stereo unspecified): the TGI with MDA-MB-231 breast, with SN12C renal, in the assay with LOX IMVI melanoma, with MCF7 breast, in the assay on NCI/ADR-RES ovarian and in the assay with NCI-H226 lung was over 100 µM each time. The TGI with UACC-62 melanoma, in the assay on SK-MEL-28 melanoma and in the assay on OVCAR-3 ovarian was over 100 µM in each case.
As to `Cn1cnc2c(sc3nc4ccccc4n32)c1=N`, the TGI in the assay on MDA-MB-231 breast, in the assay with LOX IMVI melanoma, in the assay with MCF7 breast, with NCI/ADR-RES ovarian, in the assay on NCI-H226 lung and with OVCAR-4 ovarian was over 100 µM each time. Further, the TGI in the assay with UACC-62 melanoma, in the assay on SK-MEL-28 melanoma and in the assay on OVCAR-3 ovarian was over 100 µM in each case.
On to `C[N+](C)(C)c1ncnc2c1ncn2C1CCCCO1` (stereo unspecified), for which the TGI in the assay on MDA-MB-231 breast, with SN12C renal, with LOX IMVI melanoma, in the assay on MCF7 breast, in the assay on NCI/ADR-RES ovarian and with OVCAR-4 ovarian was over 100 µM each time. Further, the TGI in the assay on UACC-62 melanoma, in the assay with SK-MEL-28 melanoma and with OVCAR-3 ovarian was over 100 µM each time.
For `O=C(NCc1ccc(Cl)cc1)c1cc2sccc2nc1C(F)(F)F`, the TGI is over 100 µM with MDA-MB-231 breast; over 100 µM in the assay on SN12C renal; over 100 µM with MCF7 breast; over 100 µM with NCI/ADR-RES ovarian; 50 µM in the assay with NCI-H226 lung; 44.8 µM in the assay with OVCAR-4 ovarian. For the same compound, the results for the TGI in the assay with UACC-62 melanoma, in the assay with SK-MEL-28 melanoma and in the assay with OVCAR-3 ovarian were over 100 µM, over 100 µM and 98.4 µM, respectively.
As to `O=C1c2cccc3cccc(c23)C(=O)N1CCCNOCCONCCCN1C(=O)c2cccc3cccc(c23)C1=O`, the TGI with MDA-MB-231 breast, in the assay on LOX IMVI melanoma, in the assay on MCF7 breast, in the assay with NCI/ADR-RES ovarian, in the assay on NCI-H226 lung and with OVCAR-4 ovarian was over 100 µM in each case. The TGI with UACC-62 melanoma, in the assay with SK-MEL-28 melanoma and with OVCAR-3 ovarian was over 100 µM throughout.
Regarding `CC(=Nc1ccncc1)C(C)=Nc1ccncc1`, the TGI with MDA-MB-231 breast is 62.6 µM; in the assay on SN12C renal, 30 µM; in the assay on LOX IMVI melanoma it was 42.1 µM; in the assay on MCF7 breast, 38.3 µM; in the assay on NCI/ADR-RES ovarian, over 100 µM; in the assay on NCI-H226 lung, over 100 µM. In addition, the TGI in the assay on OVCAR-4 ovarian is 27.4 µM; with SK-MEL-28 melanoma, over 100 µM; in the assay with OVCAR-3 ovarian, 28.8 µM.
Take `C=CC[C@@]1(C(=O)OC)[C@H](Sc2ccccc2)C1(C)C`: the TGI in the assay with MDA-MB-231 breast was over 100 µM; with SN12C renal it was 76.8 µM; in the assay with MCF7 breast, 74.1 µM; in the assay on NCI/ADR-RES ovarian it was over 100 µM; in the assay with NCI-H226 lung, over 100 µM; in the assay on OVCAR-4 ovarian it was over 100 µM. The TGI in the assay on UACC-62 melanoma, with SK-MEL-28 melanoma and with OVCAR-3 ovarian was over 100 µM in each case.
For `COC(=O)C1(Cc2ccccc2)Cc2ccccc2C1`, the TGI was over 100 µM in the assay with MDA-MB-231 breast; over 100 µM with SN12C renal; 88 µM with LOX IMVI melanoma; over 100 µM in the assay on MCF7 breast; 69.2 µM with NCI/ADR-RES ovarian; 78.3 µM with NCI-H226 lung. For the same compound, the TGI with OVCAR-4 ovarian was over 100 µM; in the assay on UACC-62 melanoma it was 75.6 µM; with SK-MEL-28 melanoma, over 100 µM.
For `O=C1/C(=C2\Sc3c(ccc(Cl)c3Cl)C2=O)Sc2c1ccc(Cl)c2Cl`, the TGI in the assay on MDA-MB-231 breast, in the assay on SN12C renal, in the assay with MCF7 breast, in the assay on NCI/ADR-RES ovarian, in the assay on NCI-H226 lung and with OVCAR-4 ovarian was over 100 µM in each case. The TGI with UACC-62 melanoma, with SK-MEL-28 melanoma and in the assay with OVCAR-3 ovarian was over 100 µM throughout.
In the case of `CC(=O)O[C@H]1C(=O)[C@@]2(C)[C@H]([C@H](OC(=O)c3ccccc3)[C@]3(O)C[C@H](OC(=O)[C@H](O)[C@@H](NC(=O)CC(C)(C)C)c4ccccc4)C(C)=C1C3(C)C)C1(OC(C)=O)CO[C@@H]1C[C@@H]2O` (stereo partly specified), the TGI was over 10 µM in the assay on MDA-MB-231 breast; over 10 µM in the assay with SN12C renal; over 10 µM in the assay with LOX IMVI melanoma; over 10 µM in the assay with MCF7 breast; over 10 µM with NCI/ADR-RES ovarian; over 5.23 µM in the assay on NCI-H226 lung. The TGI with OVCAR-4 ovarian, with UACC-62 melanoma and in the assay on SK-MEL-28 melanoma was over 10 µM throughout.
Regarding `CC(C)N(C)C(=O)C12C3C4C1C1C2C3C41C#N` (stereo unspecified), the TGI in the assay with MDA-MB-231 breast, in the assay on SN12C renal, in the assay with LOX IMVI melanoma, with MCF7 breast, with NCI/ADR-RES ovarian and with OVCAR-4 ovarian was over 100 µM each time. The TGI with UACC-62 melanoma, with SK-MEL-28 melanoma and in the assay with OVCAR-3 ovarian was over 100 µM in each case.
Turning to `Cc1ccc(S(=O)(=O)c2c(O)c3ccccc3n(C)c2=O)cc1`, the TGI in the assay with MDA-MB-231 breast, in the assay with SN12C renal, in the assay on MCF7 breast, in the assay with NCI/ADR-RES ovarian, with NCI-H226 lung and in the assay with OVCAR-4 ovarian was over 100 µM each time. Besides, the TGI in the assay with UACC-62 melanoma, in the assay with SK-MEL-28 melanoma and in the assay with OVCAR-3 ovarian was over 100 µM throughout.
